# Test system: S. Typhimurium PhoP-promoter GFP reporter counterscreen, fluorescence, 4 h
# Assay: S. Typhimurium GFP fluorescence modified counterscreen for PhoP regulon inhibitor project dose response (AID 1981)
row,SMILES,IC50 [µM]
1,COc1ccc(C(C[N+](=O)[O-])C2(c3ccc(OC)c(OC)c3)C(=O)c3ccccc3C2=O)cc1 (configuration not stated),23.6
2,Oc1ccccc1NCC(O)Cn1ccc2ccccc21 (configuration not stated),130
3,Oc1c(CN2CCOCC2)cc(COCc2ccccc2)c2cccnc12,98.2
4,N=C(N)SCc1cn(-c2ccccc2)nc1-c1ccc(Br)cc1,36.1
5,CC[C@H]1OC(=O)[C@H](C)[C@@H](O[C@H]2C[C@@](C)(OC)[C@@H](O)[C@H](C)O2)[C@H](C)[C@@H](O[C@@H]2O[C@H](C)C[C@H](N(C)C)[C@H]2O)[C@](C)(O)C[C@@H](C)[C@@H]2N[C@@H](COCCOC)O[C@H]([C@H]2C)[C@]1(C)O,22.6
6,CCN(CC)S(=O)(=O)c1cccc(C(=O)N/N=C/c2ccc(O)c(O)c2O)c1,78.9
7,Cc1nc(NC(=O)c2ccccc2)sc1-c1csc(Nc2ccc(F)cc2)n1,86.4
8,Cc1ccc(S(=O)(=O)/N=C2/C=C(Sc3ncn[nH]3)C(=O)c3ccccc32)c(C)c1,56.1
9,Clc1cc(Br)ccc1OCCCNCc1ccccc1,83.4
10,O=C(Oc1c(Cl)cc(Cl)c2cccnc12)c1ccco1,17.3
11,O=C(NN=C1CCN(Cc2ccccc2)CC1)c1cc2ccccc2cc1O,128
12,CCOC(=O)C1=Nc2ccccc2C1=[N+]=[N-],50
13,O=[N+]([O-])c1cc(F)c2cccnc2c1O,9.5
14,CC1COc2c(N3CCN(C)CC3)c(F)cc3c(=O)c(C(=O)O)cn1c23 (configuration not stated),0.56
15,C=CC1=C(C(=O)O)N2C(=O)[C@@H](NC(=O)/C(=N/OCC(=O)O)c3csc(N)n3)[C@H]2SC1,17.9
16,O=C(N/N=C\C=C\c1ccc([N+](=O)[O-])o1)c1cccs1,34.8
17,CCCCCNCC(=O)Nc1cccc(C(=O)Nc2cccc(C(F)(F)F)c2)c1,135
18,O=[N+]([O-])c1cc(Cl)c2cccnc2c1O,1.96
19,O=C(N/N=C/c1ccc([N+](=O)[O-])o1)c1ccc(O)cc1,21
20,C/C(=N\N=C(N)N)c1ccc(Cl)c(Cl)c1,92.6
21,CCCCN(CCCC)C(=O)c1cn(CC)c2cc(N3CCN(C)CC3)c(F)cc2c1=O,14.2

row,SMILES,IC50 [µM]
1,O=C(N/N=C/c1cc(Cl)ccc1O)c1ccncc1,31.2
2,Cc1nc2c(=O)n(C)c(=O)nc-2n(C)n1,0.6
3,COc1nsnc1NS(=O)(=O)c1ccc(NC(=S)NC(=O)c2cccnc2)cc1,34.4
4,CCCCCCCCCC[n+]1cccc2c3ccccc3ccc21,43.8
5,C#CCOCCOCCOCCNc1nc(N2CCN(C(=O)CCCCCCCCCCNC(=O)[C@H](CCCN=C(N)N)n3cc(C[C@@H](C)CC)nn3)CC2)nc(N2CCN(C(=O)CCCCCCCCCCNC(=O)[C@@H]([C@H](C)CC)n3cc(CCCCCN)nn3)CC2)n1,41.4
6,CC(C)CCNCC(O)CON=C1c2ccccc2-c2ccccc21 (configuration not stated),136
7,COc1ccc2[nH]c3c(C)c4ccncc4c(C)c3c2c1,80.6
8,COc1cccc(/C=N/Nc2ncc(C(F)(F)F)cc2Cl)c1O,34.7
9,NC1CCN(c2c(F)cc3c(=O)c(C(=O)O)cn(C4CC4)c3c2Cl)C1 (configuration not stated),< 0.23
10,Cc1cc(/C=N/n2c(COc3ccccc3)nc3ccccc3c2=O)c(O)c([N+](=O)[O-])c1,61.4
11,CCn1cc(C(=O)O)c(=O)c2cc(F)c(N3CCN(C(=S)NC(=O)c4ccccc4C)CC3)cc21,22.2
12,CCOc1cccc(CNc2ccc(O)cc2)c1OCc1ccc(Cl)cc1Cl,125
13,Oc1c(C(Nc2cccc(C(F)(F)F)c2)c2cccnc2)ccc2cccnc12 (configuration not stated),56.2
14,CCCCCCCCCCCCCCCCn1cc[n+](C)c1,13
15,Oc1ccc(N2CCN(Cc3ccc(OCCCN4CCCCC4)cc3)CC2)cc1,110
16,CCCCCOc1ccc(CSC(=N)N)cc1[N+](=O)[O-],86.8
17,C[C@H]1COc2c(N3CCN(C)CC3)c(F)cc3c(=O)c(C(=O)O)cn1c23,< 0.23
18,COc1ccc(Nc2cc(C)c3c(O)cccc3n2)cc1,70
19,C(=N\Nc1ccccn1)/c1cccnc1,62.2
20,Oc1cccc(C=NCc2ccccc2)c1O,109
21,CCCCCc1ccc(OCCOCCn2c[n+](C)c3ccccc32)c(CCCCC)c1,55

# Source: PubChem BioAssay AID1981 (Southern Research Specialized Biocontainment Screening …, 2009)
